Values of other authors as cited in US20260216276A1, “COMPOSITIONS AND METHODS FOR MODULATING COMPLEMENT ACTIVITY” (UCB HOLDINGS, INC., priority 2019, published 2026).
Starred links: 1 amine or outer side, 2 acyl side, 3 side chain; linkers in the order of their positions; H or OH if unused. Positions of bridges follow the written chain, without caps; N, C: chain ends. Non-standard residues stand in square brackets, D forms with d. Residues, ends and D or L forms follow the SMILES beside them. Groups on a side chain read outwards from the residue. *: point of attachment. PEG24 = NCCOCCOCCOCCOCCOCCOCCOCCOCCOCCOCCOCCOCCOCCOCCOCCOCCOCCOCCOCCOCCOCCOCCOCCOCCC(=O)O; X1 = N=C(N)NCCC[C@H](N[*:1])C(=O)C[C@@H](Cc1ccccc1)C(=O)[*:2]; Trp(7-aza) = N[C@@H](Cc1c[nH]c2ncccc12)C(=O)O; γGlu = O=C(O)[C@H](CCC(=O)[*:2])N[*:1]; Palmitoyl = CCCCCCCCCCCCCCCC(=O)*; NMeD = CN[C@@H](CC(=O)O)C(=O)O; Chg = N[C@H](C(=O)O)C1CCCCC1; Tle = CC(C)(C)[C@H](N)C(=O)O

Columns and labels:
[1] = system: complement component 5 (C5); conditions: including p.R885>H/C; cited from earlier work
[2] = system: surface-bound C5b-9 or soluble membrane attack complex (sC5b-9); conditions: unlike eculizumab; cited from earlier work

## CCCCCCCCCCCCCCCC(=O)N[C@@H](CCC(=O)NCCOCCOCCOCCOCCOCCOCCOCCOCCOCCOCCOCCOCCOCCOCCOCCOCCOCCOCCOCCOCCOCCOCCOCCOCCC(=O)NCCCC[C@H](NC(=O)[C@@H](NC(=O)[C@@H]1CCCN1C(=O)[C@H](Cc1ccc(O)cc1)NC(=O)[C@H](CCC(=O)[O-])NC(=O)[C@H](Cc1c[nH]c2ncccc12)NC(=O)[C@H](Cc1ccc(O)cc1)NC(=O)[C@@H](NC(=O)[C@H](CC(=O)[O-])N(C)C(=O)[C@@H]1CC(=O)NCCCC[C@H](NC(C)=O)C(=O)N[C@@H](C(C)C)C(=O)N[C@@H](CCC(=O)O)C(=O)N[C@@H](CCCNC(=N)N)C(=O)C[C@@H](Cc2ccccc2)C(=O)N1)C(C)(C)C)C1CCCCC1)C(=O)[O-])C(=O)[O-].[Na+].[Na+].[Na+].[Na+] [zilucoplan] (Ac-KVE[X1]D[NMeD][Tle]Y[Trp(7-aza)]EYP[Chg]K([PEG24-γGlu-Palmitoyl])-OH; lactam 1-5)
[1]
  binding and inhibitory activities in the presence of clinically relevant human C5 polymorphisms: not affected
[2]
  binding to surface-bound C5b-9 or sC5b-9: does not bind
